The test deals with CEM cells HIV-1 protection, formazan growth assay. Description: NCI AIDS Antiviral Assay. The following applies: for IC50: measured here: growth of uninfected CEM cells. The method, boiled down:
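Screen of anti-HIV-1 activity in human CEM cells using a formazan-based growth measurement at five drug concentrations. Hits with 50% or greater protection were repeated, and confirmation required reproducible complete protection.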

EC50, IC50 and outcome data for 29 compounds are collected here from PubChem BioAssay AID179 (DTP/NCI, 2004).

Values joined by “and” are separate entries in the source; they are usually repeats but may differ in a detail not shown here. Equal values may be shown once. Active and inactive are the calls of the source.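 The calls were made as follows: active = compounds giving half or more protection of infected cells from virus-caused growth loss, again on retest; inactive = the rest.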 Where a SMILES comes first, the peptide text is derived from it. The star is where a group is joined. Cbz = O=C(OCc1ccccc1)*; Boc = CC(C)(C)OC(=O)* A value given as a limit tells only on which side of the number the result lay.

For orientation: EC50 means the midpoint of the concentration-response curve. Usually IC50 stands for the concentration that inhibits the measured activity by half. Read a high IC50 as lower potency. For the compound `CCOC(=O)CCC(NC(=O)C(Cc1ccccc1)NC(=O)OCc1ccccc1)C(=O)OCC` (stereo not drawn) (Cbz-Phe-Glu(OEt)-OEt; configuration not given here), the EC50 was > 200 µM and the IC50 was found to be 9.55 µM. In the case of `CCOC(=O)C1SCCC1(C)O` (stereo not drawn), the result was inactive.

As to `CN(C)CN(C)c1nc(N(C)C)nc(N(C)CN(C)C)n1`, the EC50 is > 200 µM and the IC50 turned out to be 32.4 µM.

In the case of `O=C(Nc1ccc(Cl)c(Cl)c1)C1C(=O)N(c2ccc(Cl)c(Cl)c2)C(=O)/C1=N\O` (stereo not drawn), the outcome was inactive.

On to `Cc1cccc2c1CC1(C2)Cc2c(C)cccc2C1=O` (stereo not drawn), for which the EC50 is > 200 µM and the IC50 was 37.2 µM. The corresponding values for `Cn1c(=O)[nH]c2c(c1=O)CCCS2` are > 251 µM and > 251 µM.

In the case of `Cc1cn(CC2COC(CO)O2)c(=O)[nH]c1=O` (stereo not drawn), the EC50 is > 1020 µM and the IC50 was > 1020 µM. Consider `CCOC(=O)C(CCCl)C(=O)OCC`, for which the EC50 is > 200 µM and the IC50 is > 200 µM. In the case of `CC1(C)C(=O)N(c2ccccc2)C(=O)N1c1nc2ccccc2[nH]1`, the EC50 was > 155 µM and the IC50 was > 155 µM.

As for `COP(=O)(OC)/C(C#N)=C/c1ccco1`, the EC50 is > 1100 µM and the IC50 was determined as 832 µM.

`O=C1OC2(c3ccccc31)c1ccc(O)c(O)c1Oc1c2ccc(O)c1O`: the EC50 is > 200 µM; the IC50 was 36.3 µM and 33.1 µM and 9.55 µM. With `COC(=O)C(Cc1c[nH]c2ccccc12)NC(=O)C(Cc1c[nH]c2ccccc12)NC(=O)C(Cc1c[nH]c2ccccc12)NC(=O)C(Cc1c[nH]c2ccccc12)NC(=O)C(Cc1c[nH]c2ccccc12)NC(=O)C(Cc1c[nH]c2ccccc12)NC(=O)C(Cc1c[nH]c2ccccc12)NC(=O)OC(C)(C)C` (stereo not drawn) (Boc-WWWWWWW-OMe; configuration not given here), the EC50 is > 100 µM and the IC50 stood at 58.9 µM. Regarding `COC1=CC2(OC)CCC1C1=C2C(=O)c2c(O)cccc2C1=O` (stereo not drawn), the result was inactive.

For `CSc1cc(SC)ncn1`, the EC50 is > 1450 µM and the half-maximal inhibitory concentration (IC50) amounted to 1020 µM.

For the compound `c1ccc(-c2nnc(-c3nsc4ccccc34)o2)cc1`, the EC50 was > 18.6 µM and the IC50 was > 18.6 µM. `O=C(O)CSC(NC(=O)C(C(F)(F)F)C(F)(F)F)(C(F)(F)F)C(F)(F)F`: the EC50 was > 200 µM and the IC50 is > 200 µM.

For `O=C1C=Cc2ncccc2C1=O`, the EC50 was > 1580 µM and the IC50 turned out to be 5.5 µM. In the case of `CC1(C)CC(O)C2=C(O1)C(=O)c1ncccc1C2=O` (stereo not drawn), the result was inactive.

For the compound `CC(C)(NC1=NCCO1)c1ccccc1`, the EC50 was > 200 µM and the IC50 is > 200 µM. As to `CCOC(=O)C(NC(=O)c1ccccc1)(Nc1ccc(S(=O)(=O)Nc2cc(C)on2)cc1)C(F)(F)F` (stereo not drawn), the EC50 is > 200 µM and the concentration for half-maximal inhibition (IC50) is > 200 µM.

Turning to `Cc1ncc([N+](=O)[O-])n1CCN(C)CCCCn1ccnc1[N+](=O)[O-]`, the EC50 is > 200 µM and the IC50 was > 200 µM. As for `CCCCCCCCCCNCCSSc1ccccc1`, the EC50 is > 200 µM and the IC50 worked out at 4.27 µM. The corresponding values for `COC(=O)COc1ccc([As](=O)(O)O)cc1` are > 200 µM and > 200 µM. The corresponding values for `CC(=O)O[C@@H]1C(C2CCCCC2)C=[N+]([O-])O[C@@H]1OC1CCCC1(c1ccccc1)c1ccccc1` (stereo partly drawn) are > 200 µM and 1.7 µM. Taken in the same sequence, the figures for `COCOCC1CCCN1CN1CCC[C@H]1COCOC` (stereo partly drawn) were > 200 µM and 107 µM. On to `Cc1c(C)c2cc3c(cc2oc1=O)OCC3`, for which the EC50 is > 83.2 µM and the IC50 came to 55 µM. Taken in the same sequence, the figures for `N#C/C(=C\N1C(=O)/C(=C/c2cccc([N+](=O)[O-])c2)SC1=S)c1nc2ccccc2s1` were > 200 µM and 29.5 µM.

For the compound `CN(C)C1=CC(=O)C(=O)c2ccncc21`, the result was inactive. For the compound `CC1SC(c2ccccc2)N(Nc2c3ccccc3nc3ccccc23)C1=O` (stereo not drawn), the EC50 was > 67.6 µM and the IC50 was > 67.6 µM.
